Entries after “also recorded” stand apart in the source; their conditions may differ. *1 amine or outer side, *2 acyl side, *3 side chain or, on linkers, in order; H or OH if unused. Where a SMILES comes first, the peptide text is derived from it. [ ]: non-standard residue; d: D form. X1 = CC(=N)NCCCC[C@H](N[*:1])C(=O)[*:2]
Legend:
MOC1 cells = assay: Live-dead viability of MOC1 cells on L-NIL-MDP hydrogel; assay type: cell-based, mouse; details: cultured on hydrogel over 7 days
Protocol: Cell culture. The murine oral cancer cell line, MOC1 was provided by Dr. Ravindra Uppaluri (Dana-Farber Cancer Institute, Harvard University, Boston, MA) and maintained as previously described (Judd et al., 2012). For in vitro experiments, mouse MOC1 cells were cultured at 37° C. with 5% CO2 in media routinely used for maintaining this cell line (Judd et al., 2012). For live-dead viability studies done using 2-D culture, peptide hydrogel 70 μL in volume (thickness approximately 1.75 mm) were pipetted into the wells of Lab-Tek 16 well chamber slides (Thermo Fisher, Rochester, NY). The gels were pipetted carefully into the bottom of the wells, and the plates were gently tapped down onto the bench top before shear recovery to flatten the pipetted gels and facilitate uniform spreading of the material. After pipetting, time was allowed for the samples to shear recover (5-10 min) before the addition of 200 μL cell media and 5,000 MOC1 cells. Each time point (days 1, 3, 7) had separate slides prepared with duplicate gels. Cell media was replaced every 2 days, carefully pipetting to avoid dislodging the gel material. […] Image processing was done with NIS Elements (Nikon Instruments, Melville, NY), and Imaris Cell Counting software (Bitplane, Concord, MA) was used to quantify live-dead percentages.

[1] = CDN drug release kinetics from hydrogels; assay type: physicochemical
Protocol: Drug release kinetics. For release kinetics studies of CDN release from various hydrogel formulations, aliquots of CDN-loaded gel (30 μL each) were deposited into 96 well Falcon® flat bottom plates (Becton Dickinson Labware, Franklin Lakes, NJ). 30 μL gel was pipetted to generate a cylindrical puck in each well for each experiment. The pipetted gels were allowed to shear recover for approximately 5-10 min before adding 200 μL of the relevant buffer to the top of the gels (1× HBSS for all MDPs, 1× DPBS for collagen, Matrigel, 1× HBSS with 0.1 M CaCl2) for alginate, etc. according to the gelation requirements of the material). The addition of buffer was defined as t=0 for the beginning of release kinetics experiments. Table 1 summarizes the material conditions and preparation methods used for various comparative CDN delivery kinetics studies.
A Nanodrop 2000C Spectrophotometer (Thermo Scientific) was used to measure drug release by UV absorbance at 259 nm for CDN ML RR-S2 CDA, using an extinction coefficient of 24,000 M^−1cm^−1 (259 nm). Absorbance measurements were obtained by removing […] from the top of the liquid buffers above the loaded gels, over time measuring the increase in absorbance. Over the course of the first 24 hours, release of CDN was measured usually every 1-2 hours and converted to total percent released, with additional measurements also made every 24 hours for up to a week to establish when equilibrium had been reached.

VEGF = assay: Serum VEGF ELISA in mice bearing B16-F0 melanoma tumors; assay type: in vivo; details: 5 days after single 100 μL intratumoral injection
Protocol: Evaluation of in vivo VEGF reduction using murine B16-F0 melanoma tumor model. C57BL/6J male mice were purchased from The Jackson Laboratory. […] All experiments were performed with approval of IACUC at Baylor College of Medicine (BCM) and followed established protocols. B16-F0 melanoma cell line was purchased from American Type Culture Collection (ATCC) and maintained according to manufacturer instructions (DMEM high-glucose with 10% fetal bovine serum and 1% penicillin/streptomycin). C57BL/6J mice were injected subcutaneously (s.c.) with 3×10^5 B16-F0 cells in a single flank. Once tumors became palpable (day 7 post-inoculation) mice were injected intratumorally (i.t.) with either vehicle buffer control Hank's Balanced Salt Solution (HBSS), free L-NIL dissolved in HBSS at 20 mM, K2-MDP hydrogel at 1 wt. % (5.6 mM peptide), or L-NIL-MDP hydrogel at 1 wt. % (5.2 mM peptide, or approximately 20 mM L-NIL functional groups). All injections were done using 100 μL total injection volume.
Mice were euthanized 5 days following i.t. injections and tumor/blood were collected. […] VEGF quantification of undiluted serum was performed using a mouse VEGF Quantikine ELISA kit (R&D Systems, Minneapolis, MN) following manufacturer's instructions. […] Statistical differences were evaluated using Tukey's multiple comparisons test. […]

[2] = prior studies (Leach et al., 2019); cited from earlier work
iNOS = assay: Anti-nitrotyrosine immunostaining of subcutaneously injected hydrogels; assay type: in vivo, mice; details: subcutaneous implants, 3 and 7 days post injection
Protocol: Subcutaneous experiments and histology. C57BL/6J female mice were purchased from The Jackson Laboratory at age 8-12 weeks for subcutaneous characterization experiments. Mice were housed under specific pathogen-free conditions in standard temperature and lighting conditions with free access to food and water, and experiments were conducted with approval of the Institutional Animal Care and Use Committee (IACUC) at Rice University and according to NIH guidelines. Mice were injected with 100 μL MDP hydrogels in each of four separate sites in the subcutaneous space of the dorsal flank after the skin was shaved and sterilized with alcohol. At days 3, 7, 14, and 21 the mice were euthanized and the dorsal skin around the entire implant was removed, fixed overnight in 10% neutral buffered formalin, processed and paraffin embedded, and finally sectioned at […] thickness for staining using standard Masson's trichrome or hematoxylin and eosin (H&E) procedures, as well as immunohistochemical analyses (e.g., anti-nitrotyrosine IHC, or α-SMA blood vessel analysis).
Immunohistochemistry staining was performed on hydrogel implant tissue sections to further study in vivo properties of the L-NIL-MDP compared to related cationic MDPs. Anti-nitrotyrosine immunostaining was used to assess relative levels of nitrosylation of tyrosine within and around the subcutaneously injected hydrogel implants as a marker of iNOS inhibition (FIGS. 7A-H). It is known that the formation of nitric oxide (NO) and other nitrogen oxides in vivo can lead to observable post-translation modifications of peptides and proteins (Ischiropoulos, 2003). For example, surface-exposed 3-nitrotyrosine can be used as a marker of cell or tissue inflammation and damage by reactive nitrogen and oxygen species such as NO (Ahsan, 2013). The higher the local levels of iNOS activity, the greater should be the density of nitrosylated tyrosine. Therefore, visualization of nitrotyrosine levels by targeted antibodies can serve as a general indication of in vivo iNOS activity, or in the case of the L-NIL-MDP, local iNOS inhibition.

[3] = IgG release kinetics from hydrogels; assay type: physicochemical; details: compared with alginate and K2-MDP
Text: Whether the drug-mimicking L-NIL-MDP hydrogel could effectively load and control the delivery of IgG compared to other biomaterials was investigated.

In the case of `CC(=N)NCCCC[C@H](NC(=O)[C@H](CCCCNC(C)=N)NC(=O)[C@H](CC(C)C)NC(=O)[C@H](CO)NC(=O)[C@H](CC(C)C)NC(=O)[C@H](CO)NC(=O)[C@H](CC(C)C)NC(=O)[C@H](CO)NC(=O)[C@H](CC(C)C)NC(=O)[C@H](CO)NC(=O)[C@H](CC(C)C)NC(=O)[C@H](CO)NC(=O)[C@H](CC(C)C)NC(=O)[C@H](CO)NC(=O)[C@H](CCCCNC(C)=N)NC(=O)[C@H](CCCCNC(C)=N)NC(C)=O)C(N)=O` [L-NIL-MDP] (Ac-[X1][X1]SLSLSLSLSLSL[X1][X1]-NH2), the “viability of MOC1 cells (in words)” value (MOC1 cells) is reported as “high viability”, the “CDN release profile (in words)” value [1] is reported as “comparable or even better controlled release” and the “reduction of systemic VEGF levels (in words)” value (VEGF) is reported as “significantly reduced systemic VEGF levels; also recorded: Significant VEGF reduction”. For the same molecule, the “hydrogel observable post injection” value [2] was 21 days, the “nitrotyrosine staining intensity (in words)” value (iNOS) was “significantly lower; also recorded: lowest degree of nitrotyrosine staining” and the “control of IgG release (in words)” value [3] was “able to control the release of IgG more effectively”.
